Consider 10 compounds from ChEMBL document CHEMBL1201862, “PubChem BioAssay data set” (2004).

Holding throughout (experiment): NCI anticancer screen, dose series, 48 h
For experiment [1], the system named is SF-268.
In experiment [2] the test system is HOP-62.
The test system of experiment [3] is UO-31.
Experiment [4] relates to NCI-H460.
Experiment [5] deals with KM12.
The test system of experiment [6] is SN12C.
The test system of experiment [7] is EKVX.
Experiment [8] has as its system 786-0.
In experiment [9] the test system is OVCAR-3.
For experiment [10], the system named is SK-MEL-5.
Experiment [11] relates to HCT-15.
The subject of experiment [12] is U-251.
Experiment [13] deals with SW-620.
Experiment [14] deals with SK-MEL-2.
Experiment [15] concerns NCI-H23.
Experiment [16] deals with NCI-H226.
Experiment [17] relates to SR.

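Briefly, cells in 96-well plates were exposed to five compound concentrations for 48 h, and endpoints were estimated by linear interpolation. Here, GI50 denotes the concentration required for 50% inhibition of growth.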 Activity calls are given as the source filed them. Rule as the data show it: active = GI50 up to about 1.1 µM and inactive = higher.

As to `CN1CCc2c1nc(-c1ccccc1)c1c2N(C)CC1`, the GI50 is > 100 µM (inactive) in experiment [1]; 43.8 µM (inactive) in experiment [2]; 14.7 µM (inactive) in [3]; 71.1 µM (inactive) in [4]; 48.4 µM (inactive) in experiment [5]; 62.7 µM (inactive) in [6]. Moreover, the GI50 is > 100 µM (inactive) in [7]; 66.8 µM (inactive) in experiment [8]; 21.4 µM (inactive) in [9]; 36.1 µM (inactive) in [10]; 66.4 µM in experiment [11]; > 100 µM (inactive) in [12]. Moreover, the GI50 in experiment [13] is 86.9 µM (inactive); in experiment [14], > 100 µM (inactive); in experiment [15], 55.7 µM (inactive).

Turning to `CC(=O)OCC1OC(N=[N+]=[N-])C(OC(C)=O)C(OC(C)=O)C1OC1OC(COC(C)=O)C(OC(C)=O)C(OC(C)=O)C1OC(C)=O` (stereo unspecified), the GI50 in experiment [1], in [3], in experiment [4], in experiment [5], in experiment [6] and in experiment [7] was > 100 µM (inactive) throughout. Besides, the GI50 in [8] was > 100 µM (inactive); in [9], > 100 µM (inactive); in [10], > 100 µM (inactive); in experiment [11], greater than 100 µM; in experiment [12], > 100 µM (inactive); in experiment [13], > 100 µM (inactive). Also, the GI50 in [14] and in experiment [15] was > 100 µM (inactive) throughout.

On to `O=C1CCC(Cl)=CC2CCCN12` (stereo unspecified), for which the GI50 in [2], in experiment [3], in [4], in experiment [6], in experiment [7] and in [16] was > 100 µM (inactive) in each case. For the same compound, the GI50 in [8] was > 100 µM (inactive); in experiment [10] it was > 100 µM (inactive); in experiment [11] it was greater than 100 µM; in experiment [12], > 100 µM (inactive); in [13], > 100 µM (inactive); in experiment [14], > 100 µM (inactive). In addition, the GI50 in experiment [15] is > 100 µM (inactive).

For the compound `FC(F)(F)c1cccc2ns[s+]c12`, the GI50 in experiment [1], in experiment [2], in [3], in experiment [4], in experiment [5] and in [6] was > 100 µM (inactive) in each case. Also, the GI50 in experiment [7] was > 100 µM (inactive); in [16], > 100 µM (inactive); in [8], > 100 µM (inactive); in experiment [17] it was > 100 µM (inactive); in [9] it was > 100 µM (inactive); in [10] it was 69.8 µM (inactive). For the same compound, the GI50 in [12], in [13], in [14] and in experiment [15] was > 100 µM (inactive) in each case.

As for `CCC1(O)CC(c2ccccc2)N(C)C(c2ccccc2)C1` (stereo unspecified), the GI50 in [1], in [2], in experiment [3], in experiment [4], in experiment [5] and in [6] was > 100 µM (inactive) each time. Besides, the GI50 in experiment [7] was > 100 µM (inactive); in experiment [16], > 100 µM (inactive); in [8], > 100 µM (inactive); in [9], > 100 µM (inactive); in experiment [10], > 100 µM (inactive); in [11], greater than 100 µM. In addition, the GI50 in experiment [12], in experiment [13], in [14] and in [15] was > 100 µM (inactive) each time.

For `O=C(c1ccncc1)n1nc(-c2ccccc2)c(/N=N/c2ccc([N+](=O)[O-])cc2)c1-c1ccccc1`, the GI50 in experiment [1] is 49.5 µM (inactive); in experiment [2], 39.4 µM (inactive); in experiment [3], 15.9 µM (inactive); in experiment [5], 34.8 µM (inactive); in experiment [6] it was > 100 µM (inactive); in experiment [7], 3.27 µM (inactive). The GI50 in experiment [16] is 2.37 µM (inactive); in experiment [8] it was > 100 µM (inactive); in experiment [17], 45.3 µM (inactive); in experiment [9] it was 50.9 µM (inactive); in [10], 27.3 µM (inactive); in [13] it was > 100 µM (inactive). For the same compound, the values for the GI50 in experiment [14] and in experiment [15] were 77.8 µM (inactive) and 22.6 µM (inactive), respectively.

As for `CCOc1nc(OCC)nc(-c2cccn2-c2ccccc2)n1`, the GI50 was 46.5 µM (inactive) in experiment [1]; 46.1 µM (inactive) in [2]; 22.1 µM (inactive) in experiment [3]; 29 µM (inactive) in experiment [4]; 28.5 µM (inactive) in [5]; 45.6 µM (inactive) in [6]. Besides, the GI50 in [7] was 38.2 µM (inactive); in experiment [16] it was 32.7 µM (inactive); in experiment [8] it was 45.1 µM (inactive); in [17] it was 26.3 µM (inactive); in experiment [9], 20.7 µM (inactive); in experiment [11] it was 34.6 µM. The GI50 in [12] is 18.5 µM (inactive); in experiment [13] it was 50.4 µM (inactive); in [14], 34.8 µM (inactive); in experiment [15], 30.8 µM (inactive).

Regarding `CCCCNC1=C(C(=O)OCC)/C(=N/NC(=O)c2ccccc2O)CO1`, the GI50 in [1] is 6.97 µM (inactive); in experiment [2], 17.6 µM (inactive); in experiment [3] it was 4.54 µM (inactive); in [4] it was 33.3 µM (inactive); in experiment [5], 79.3 µM (inactive); in [6], 61 µM (inactive). Also, the GI50 in experiment [7] is > 100 µM (inactive); in experiment [16], 18.5 µM (inactive); in experiment [8] it was 32.1 µM (inactive); in [9], 27.1 µM (inactive); in experiment [10], 29.2 µM (inactive); in [12], 20.1 µM (inactive). Besides, the GI50 in experiment [13] is 39 µM (inactive); in [14], 18.4 µM (inactive); in experiment [15] it was 18.8 µM (inactive).

On to `CCc1cccc(C(C)CC)c1NC(=O)CC1C(=O)Nc2ccccc2S1(=O)=O` (stereo unspecified), for which the GI50 is 25.8 µM (inactive) in experiment [1]; 36.8 µM (inactive) in [2]; 34 µM (inactive) in experiment [3]; 23.9 µM (inactive) in experiment [4]; 11.5 µM (inactive) in experiment [5]; 18.4 µM (inactive) in [6]. Besides, the GI50 is 7.05 µM (inactive) in experiment [7]; 15.4 µM (inactive) in experiment [8]; 13.6 µM (inactive) in experiment [9]; 45.9 µM (inactive) in [10]; 13.3 µM in [11]; 40.3 µM (inactive) in [12]. The GI50 was 8.61 µM (inactive) in [13], 64.6 µM (inactive) in experiment [14] and 7.45 µM (inactive) in experiment [15].

For the compound `CC1OC(n2ccc(=O)[nH]c2=O)C=C(OC(=O)c2ccccc2)C1=O` (stereo unspecified), the GI50 was 71.9 µM (inactive) in experiment [2]; 55.6 µM (inactive) in experiment [3]; 48.6 µM (inactive) in experiment [4]; 88.3 µM (inactive) in [6]; > 100 µM (inactive) in experiment [7]; > 100 µM (inactive) in experiment [8]. Also, the GI50 was 26.9 µM (inactive) in experiment [9]; 56.1 µM (inactive) in experiment [10]; greater than 100 µM in [11]; 29 µM (inactive) in experiment [12]; 64.6 µM (inactive) in experiment [13]; 36.6 µM (inactive) in experiment [15].
